Consider 1 molecule from patent US20250325517A1, “ORAL DOSAGE FORMS OF ELRAGLUSIB” (Actuate Therapeutics, Inc., priority 2022, published 2025).

Data set [1] in a line: Solubility of elraglusib in acetone, acetone:water and THF with and without polymers (24 h, visual and HPLC). In kind it is physicochemical.
The nature of data set [2]: Photo-Chamber Study 1 (10FV, 50FV, 50V7; visible and UV light). In kind it is physicochemical. The source says:
The photo-chamber and ambient light studies used a RP-HPLC method to monitor the following: • elraglusib concentration and % LC • elraglusib main peak Area % • elraglusib RelS1, elraglusib RelS2, and elraglusib Anhydride peak Area % values.
The three solutions were maintained in both 5-mL glass serum vials and UV-transparent plastic cuvettes (each with and without foil overwrap) and exposed to fractions (approximately 0, 25, 50, 75, and 100%) of ICH Q1B photostability conditions (1200 klux-hr in the visible region and 200 watt-h/m^2 in the UV region) using a calibrated photo-chamber.

The nature of a further data set: in vivo. The following applies: male, Beagle, dog; for AUC(0-inf): AUCINF; for AUC(0-t): AUClast. Also noted: species or system Beagle dogs. The procedure:
The objective of this study was to evaluate the pharmacokinetic profile of elraglusib following single oral and intravenous doses in Beagle dogs.
The test article (elraglusib in a vehicle of 85% PEG400, 10% ethanol, 5% water (all components are weight/weight/weight)) was administered orally and via intravenous infusion to dogs according to the tables below.
Male Beagle dogs were selected for use in this study. Animals were at least 6 months old and males weighed approximately 9.3-10.8 kilograms at the start of dosing.
The study animals received a single oral dose of elraglusib followed by an approximate 7-day washout period after which they received a single intravenous infusion of elraglusib. Animals underwent standard evaluations such as body weight and clinical observations, and were bled for pharmacokinetics following each dose.
Plasma concentrations of elraglusib were determined for dogs treated with 20 mg/kg elraglusib via oral administration on Day 1 and then again via intravenous infusion on Day 8. […] Individual plasma concentrations were highest approximately 2-8 hours after oral administration (1,410-1,880 ng/mL), and highest at approximately 5 minutes following intravenous administration (11,800-13,600 ng/mL).

Broadly, the bioavailability is the share of a dose that reaches the circulation, judged against a reference dose that is usually intravenous. The term AUC denotes concentration integrated over time. A lower AUC goes with less exposure. For orientation: AUC(0-inf) means the area under the concentration-time curve extrapolated to infinity. As a reminder, the AUC(0-t) is the area under the concentration-time curve up to a stated or last time point. Read a low AUC(0-t) as less exposure. For orientation: Cmax means the peak of the concentration-time curve. For orientation: Tmax means the time from dosing to the highest level. What is called half-life is the time needed for the level to fall by half in the phase considered. Turning to `Cn1cc(C2=C(c3coc4ccc(F)cc34)C(=O)NC2=O)c2cc3c(cc21)OCO3` [elraglusib, 3-(5-fluorobenzofuran-3-yl)-4-(5-methyl-5H-[1,3]dioxolo[4,5-f]indol-7-yl)-1H-pyrrole-2,5-dione], the “measured concentration by HPLC” value in data set [1] (THF solution, 24 hours (theoretical 37 mg/mL)) stood at 34.68 mg/mL. In addition, the time remaining soluble result in data set [1] (tetrahydrofuran (THF)) is given as “over 24 hours”. The “% LC loss rate relative to main peak Area % loss rate” value in data set [2] (photo-exposure) was “approximately 6 times”. The “photo-conversion rate, visible light compared with UV light” value in data set [2] (vials and cuvettes) is “approximately 5 times”. Besides, the “% LC photo-conversion rate in vials (no foil) as % of rate in cuvettes (no foil)” value in data set [2] (visible light) is reported as “approximately 60%”. The molecule further returned a bioavailability in the data set “in vivo” of 31%. Further, the “AUClast, IV versus PO” value in “in vivo” (20 mg/kg) is given as “approximately 3 fold”. Moreover, in “in vivo” (iv, 20 mg/kg), the AUC was 68900 ng·h/mL, the “highest individual plasma concentrations” value is recorded as 11,800-13,600 ng/mL, the “time of highest individual plasma concentrations” value is reported as “approximately 5 minutes” and the AUC(0-inf) amounted to 72800 ng·h/mL. In the data set “in vivo” (iv, 20 mg/kg), this molecule had an AUC(0-t) of 68900 ng·h/mL and a Cmax of 12800 ng/mL. Further, the Tmax in the data set “in vivo” (iv, 20 mg/kg, Tmax) is 4.98 min. In “in vivo” (iv, 20 mg/kg, t1/2), this molecule gave a half-life of 6.05 h. Also, in the data set “in vivo” (po, 20 mg/kg), the area under the curve (AUC) came out at 21300 ng·h/mL, the “highest individual plasma concentrations” value is reported as 1,410-1,880 ng/mL, the “time of highest individual plasma concentrations” value was in the range of 2 to 8 h and the AUC(0-inf) amounted to 22600 ng·h/mL. Also, in “in vivo” (po, 20 mg/kg), the AUC(0-t) turned out to be 21300 ng·h/mL and the Cmax amounted to 1670 ng/mL.
